How the values were obtained:
[1] = molecular target: T1, human EAAT3 (Homo sapiens, UniProt P43005); experiment: FLIPR Membrane Potential (FMP) assay, antagonist potency at human EAAT3; assay type: cell-based; conditions: HEK-293 cells stably expressing human EAAT3; L-glutamate as agonist at EC80; Kb from IC50 by Cheng-Prusoff equation
T1 construct: expressed in transfected cells
T1 sequence (P43005 1-524): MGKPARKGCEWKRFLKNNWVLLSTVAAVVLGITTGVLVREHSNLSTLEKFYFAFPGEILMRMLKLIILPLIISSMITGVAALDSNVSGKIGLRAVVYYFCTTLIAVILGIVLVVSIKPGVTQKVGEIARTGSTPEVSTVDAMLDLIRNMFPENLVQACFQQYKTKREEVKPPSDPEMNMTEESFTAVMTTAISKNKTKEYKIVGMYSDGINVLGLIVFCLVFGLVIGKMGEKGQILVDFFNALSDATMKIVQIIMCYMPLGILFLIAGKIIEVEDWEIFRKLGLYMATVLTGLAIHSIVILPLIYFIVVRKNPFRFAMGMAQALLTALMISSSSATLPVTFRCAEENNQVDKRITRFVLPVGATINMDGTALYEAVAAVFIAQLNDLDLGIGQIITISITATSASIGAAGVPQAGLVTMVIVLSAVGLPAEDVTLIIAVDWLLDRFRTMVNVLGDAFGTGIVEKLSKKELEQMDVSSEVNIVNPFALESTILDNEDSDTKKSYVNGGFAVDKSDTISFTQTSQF
Description: The FLIPR Membrane Potential (FMP) Assay
HEK-293 cells stably expressing human EAAT3 were seeded at 55 000 cells/well in growth medium (DMEM glutamate free (Invitrogen 11960-044), 1% Pen Strep (10 ml/l GIBCO BRL N°15140-023), 10% FCS non dialysed heat inactivated, 5 mg/l puromycin) in poly-D-lysine treated 96-well black microtiter plates with clear-bottom. After 24 h, the growth medium was removed and 100 μl/well of Krebs buffer (140 mM NaCl, 4.7 mM KCl, 2.5 mM CaCl2, 1.2 mM MgCl2, 11 mM HEPES, 10 mM D-glucose, pH=7.4) added. The cells were then loaded by adding 100 μl/well FMP assay dye (FLIPR Membrane Potential assay reagent, Molecular Devices). The 96-well plates were then incubated at 37° C. for 1 h. The depolarization of the cells will cause more dye to enter in the cells, where it will bind to intracellular proteins and lipids and cause an increase in the fluorescence signal. Antagonist potency at human EAAT3 was determined by using L-glutamate as agonist at a concentration which gives 80% of the maximum response. The antagonists were applied 15 min before the application of the agonist L-glutamate. The assays were performed at room temperature and measurements done by using a Fluorometric Imaging Plate Reader (FLIPR, Molecular Devices) and filter #2. Responses were measured as peak increase in fluorescence minus basal (i.e. fluorescence without addition of L-glutamate). Kb was determined using the Cheng-Prusoff equation Kb=IC50/[1+(A/EC50)], where IC50 is the concentration of the antagonist producing 50% inhibition, A is the concentration of the agonist against which the IC50 is being determined (at EC80) and EC50 is the concentration of the agonist producing 50% […].

Structure (SMILES) | Kb [1] [nM] | melting point [°C]
CC1(NC(=O)c2cc(-c3ccc(Cl)cc3)cc(-n3cnnc3CO)c2)CCS(=O)(=O)C1 (racemic) [Example 36, (RS)-3-(4-Chlorophenyl)-5-[3-(hydroxymethyl)-1,2,4-triazol-4-yl]-N-(3-methyl-1,1-dioxothiolan-3-yl)-benzamide] | 1570 | 161.5
CC(C)(C)NC(=O)c1cc(-c2ccc(Cl)cc2)cc(-n2cnnc2C(C)(C)C)c1 [Example 9, N-tert-Butyl-3-(3-tert-butyl-1,2,4-triazol-4-yl)-5-(4-chlorophenyl)-benzamide] | 180 | 292.5
CC(C)(C)NC(=O)c1cc(-c2ccc(C(F)(F)F)cc2)cc(-n2cnnc2C(C)(C)C)c1 [Example 10, N-tert-Butyl-3-(3-tert-butyl-1,2,4-triazol-4-yl)-5-[4-(trifluoromethyl)-phenyl]-benzamide] | 160 | 280.5
CC(C)(C)c1nncn1-c1cc(C(=O)NC(C)(C)C2CC2)cc(-c2ccc(C(F)(F)F)cc2)c1 [Example 11, 3-(3-tert-Butyl-1,2,4-triazol-4-yl)-N-(2-cyclopropylpropan-2-yl)-5-[4-(trifluoromethyl)-phenyl]-benzamide] | 180 | 242.5
CC(C)(C)c1nncn1-c1cc(C(=O)NC(C)(C)C2CC2)cc(-c2ccc(Cl)cc2)c1 [Example 13, 3-(3-tert-Butyl-1,2,4-triazol-4-yl)-5-(4-chlorophenyl)-N-(2-cyclopropylpropan-2-yl)-benzamide] | 290 | 136.5
CC(C)c1nncn1-c1cc(C(=O)NC(C)(C)C2CC2)cc(-c2ccc(F)cc2)c1 [Example 16, N-(2-Cyclopropylpropan-2-yl)-3-(4-fluorophenyl)-5-(3-propan-2-yl-1,2,4-triazol-4-yl)-benzamide] | 100 | 101
CC(C)c1nncn1-c1cc(C(=O)NC(C)(C)C2CC2)cc(-c2ccc(Cl)cc2)c1 [Example 17, 3-(4-Chlorophenyl)-N-(2-cyclopropyl-propan-2-yl)-5-(3-propan-2-yl-1,2,4-triazol-4-yl)-benzamide] | 190 | 105
CC(C)c1nncn1-c1cc(C(=O)NC(C)(C)C)cc(-c2ccc(C(F)(F)F)cc2)c1 [Example 18, N-tert-Butyl-3-(3-propan-2-yl-1,2,4-triazol-4-yl)-5-[4-(trifluoromethyl)-phenyl]-benzamide] | 130 | 126
CC(C)c1nncn1-c1cc(C(=O)NC(C)(C)C2CC2)cc(-c2ccc(C(F)(F)F)cc2)c1 [Example 19, N-(2-Cyclopropyl-propan-2-yl)-3-(3-propan-2-yl-1,2,4-triazol-4-yl)-5-[4-(trifluoromethyl)-phenyl]-benzamide] | 220 | 100
CC(C)c1nncn1-c1cc(C(=O)NC(C)(C)CO)cc(-c2ccc(Cl)cc2)c1 [Example 21, 3-(4-Chlorophenyl)-N-(1-hydroxy-2-methylpropan-2-yl)-5-(3-propan-2-yl-1,2,4-triazol-4-yl)-benzamide] | 230 | 180
CC(C)c1nncn1-c1cc(C(=O)NC(C)(C)CO)cc(-c2ccc(C(F)(F)F)cc2)c1 [Example 22, N-(1-hydroxy-2-methylpropan-2-yl)-3-(3-propan-2-yl-1,2,4-triazol-4-yl)-5-[4-(trifluoromethyl)-phenyl]-benzamide] | 330 | 214
CCC(C)(C)NC(=O)c1cc(-c2ccc(C(F)(F)F)cc2)cc(-n2cnnc2C(C)C)c1 [Example 23, N-(2-Methylbutan-2-yl)-3-(3-propan-2-yl-1,2,4-triazol-4-yl)-5-[4-(trifluoromethyl)-phenyl]-benzamide] | 94 | 104
CCC(C)(C)NC(=O)c1cc(-c2ccc(Cl)cc2)cc(-n2cnnc2C(C)C)c1 [Example 25, 3-(4-Chlorophenyl)-N-(2-methylbutan-2-yl)-5-(3-propan-2-yl-1,2,4-triazol-4-yl)-benzamide] | 120 | 103

Other lines, results leading:

Kb [1] [nM] | melting point [°C] | Structure (SMILES)
88 | 212 | CCC(C)(C)NC(=O)c1cc(-c2ccc(F)cc2)cc(-n2cnnc2)c1 [Example 1, 3-(4-Fluorophenyl)-N-(2-methylbutan-2-yl)-5-(1,2,4-triazol-4-yl)-benzamide]
290 | 204 | CC(C)(C)NC(=O)c1cc(-c2ccc(F)cc2)cc(-n2cnnc2)c1 [Example 2, N-tert-Butyl-3-(4-fluorophenyl)-5-(1,2,4-triazol-4-yl)-benzamide]
390 | 135.5 | CC(C)(NC(=O)c1cc(-c2ccc(F)cc2)cc(-n2cnnc2)c1)C1CC1 [Example 3, N-(2-Cyclopropylpropan-2-yl)-3-(4-fluorophenyl)-5-(1,2,4-triazol-4-yl)-benzamide]
250 | 147 | CC(C)(NC(=O)c1cc(-c2ccc(F)cc2)cc(-n2cnnc2)c1)C(F)(F)F [Example 4, 3-(4-Fluorophenyl)-5-(1,2,4-triazol-4-yl)-N-(1,1,1-trifluoro-2-methylpropan-2-yl)-benzamide]
160 | 235.5 | Cc1nncn1-c1cc(C(=O)NC(C)(C)C)cc(-c2ccc(F)cc2)c1 [Example 5, N-tert-Butyl-3-(4-fluorophenyl)-5-(3-methyl-1,2,4-triazol-4-yl)-benzamide]
76 | 241 | Cc1nncn1-c1cc(C(=O)NC(C)(C)C)cc(-c2ccc(Cl)cc2)c1 [Example 6, N-tert-Butyl-3-(4-chlorophenyl)-5-(3-methyl-1,2,4-triazol-4-yl)-benzamide]
130 | 225.5 | Cc1nncn1-c1cc(C(=O)NC(C)(C)C)cc(-c2ccc(C(F)(F)F)cc2)c1 [Example 7, N-tert-Butyl-3-(3-methyl-1,2,4-triazol-4-yl)-5-[4-(trifluoromethyl)-phenyl]-benzamide]
190 | 279 | CC(C)(C)NC(=O)c1cc(-c2ccc(F)cc2)cc(-n2cnnc2C(C)(C)C)c1 [Example 8, N-tert-Butyl-3-(3-tert-butyl-1,2,4-triazol-4-yl)-5-(4-fluorophenyl)-benzamide]
150 | 111 | CC(C)(C)c1nncn1-c1cc(C(=O)NC(C)(C)C2CC2)cc(-c2ccc(F)cc2)c1 [Example 12, 3-(3-tert-Butyl-1,2,4-triazol-4-yl)-N-(2-cyclopropylpropan-2-yl)-5-(4-fluorophenyl)-benzamide]
75 | 240.5 | CC(C)c1nncn1-c1cc(C(=O)NC(C)(C)C)cc(-c2ccc(F)cc2)c1 [Example 14, N-tert-Butyl-3-(4-fluorophenyl)-5-(3-propan-2-yl-1,2,4-triazol-4-yl)-benzamide]
75 | 239.5 | CC(C)c1nncn1-c1cc(C(=O)NC(C)(C)C)cc(-c2ccc(Cl)cc2)c1 [Example 15, N-tert-Butyl-3-(4-chlorophenyl)-5-(3-propan-2-yl-1,2,4-triazol-4-yl)-benzamide]
390 | 171.5 | CC(C)c1nncn1-c1cc(C(=O)NC(C)(C)CO)cc(-c2ccc(F)cc2)c1 [Example 20, 3-(4-Fluorophenyl)-N-(1-hydroxy-2-methylpropan-2-yl)-5-(3-propan-2-yl-1,2,4-triazol-4-yl)-benzamide]
54 | 95 | CCC(C)(C)NC(=O)c1cc(-c2ccc(F)cc2)cc(-n2cnnc2C(C)C)c1 [Example 24, 3-(4-Fluorophenyl)-N-(2-methylbutan-2-yl)-5-(3-propan-2-yl-1,2,4-triazol-4-yl)-benzamide]
145 | 210 | CC(C)(C)NC(=O)c1cc(-c2ccc(Cl)cc2)cc(-n2cnnc2CO)c1 [Example 26, N-tert-Butyl-3-(4-chlorophenyl)-5-[3-(hydroxymethyl)-1,2,4-triazol-4-yl]-benzamide]

Reference: patent publication US10273217B2, “Triazole derivatives” (Hoffmann-La Roche Inc., priority 2015, dated 2019)
